Data reported in patent publication US12606541B2, “PPARg modulators and methods of use” (Eisai R&D Management Co., Ltd., priority 2020, dated 2026).

Legend:
His6-TEV-PPARγ-(234-505) = molecular target: T1, His6-TEV-PPARγ-(234-505) (Homo sapiens, UniProt P37231); test: TR-FRET Assay to Measure Co-R Peptide Recruitment to PPARγ; format: biochemical; conditions: Co-R peptide (SMRT-ID2) recruitment; top final concentration 20 μM; read-out: TR-FRET i-Ag; AC50
T1 construct: The His6-TEV-PPARγ-(234-505) protein for assay was expressed and purified; TEV cleavage site (N); made in house
T1 sequence (P37231 234-505): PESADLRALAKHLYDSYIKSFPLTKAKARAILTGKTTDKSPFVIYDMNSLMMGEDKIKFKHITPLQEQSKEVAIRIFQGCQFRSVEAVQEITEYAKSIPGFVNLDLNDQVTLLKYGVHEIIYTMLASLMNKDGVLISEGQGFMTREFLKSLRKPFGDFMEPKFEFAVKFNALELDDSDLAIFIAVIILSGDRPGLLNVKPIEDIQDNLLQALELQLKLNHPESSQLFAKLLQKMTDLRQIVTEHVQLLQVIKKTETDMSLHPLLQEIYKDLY
How it was run: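 His-tagged PPARγ (or controls) was preincubated with compound for 20 minutes at room temperature, then 5 nM anti-His terbium antibody and 200 nM FITC-labeled SMRT-ID2 corepressor peptide (final) were added for a further hour. TR-FRET signal was normalized to percent response using 500 nM T0070907 and DMSO controls.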

UM-UC-9 engineered cells = test: Cell proliferation / short-term viability assay, CellTiter-Glo 144 h; format: cell-based, human; conditions: Homo sapiens, UM-UC-9, 144 h, read-out: CTGlo 144 h UMUC9.5, G150
How it was run: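 UM-UC-9 engineered assay-ready cells seeded at 500 cells/well in high-glucose DMEM/10% FBS, treated from dose-response plates, grown at 37° C, 5% CO2. CellTiter-Glo 2.0 luminescence read on day 7, with a day-0 pretreatment plate as T0 reference and DMSO wells as negative control.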

Compound	AC50 (His6-TEV-PPARγ-(234-505))	IC50 (UM-UC-9 engineered cells)
COc1cc(-c2cc(C(=O)N3[C@@H]4CC[C@H]3C[C@H](C(=O)NC3CCC(O)(C(F)(F)CO)CC3)C4)n[nH]2)c(F)cn1 (stereo partly drawn) [Example 436, (1R,3s,5S)—N-(4-(1,1-difluoro-2-hydroxyethyl)-4-hydroxycyclohexyl)-8-(5-(5-fluoro-2-methoxypyridin-4-yl)-1H-pyrazole-3-carbonyl)-8-azabicyclo[3.2.1]octane-3-carboxamide]	132 nM	> 10000 nM
COc1cc(-c2cc(C(=O)N3[C@@H]4CC[C@H]3C[C@H](C(=O)N[C@@H]3CCN(CC5(C(F)(F)F)CC5)C3)C4)n[nH]2)c(F)cn1 [Example 437, (1R,3s,5S)-8-(5-(5-fluoro-2-methoxypyridin-4-yl)-1H-pyrazole-3-carbonyl)-N—((R)-1-((1-(trifluoromethyl)cyclopropyl)methyl)pyrrolidin-3-yl)-8-azabicyclo[3.2.1]octane-3-carboxamide]	14.8 nM	67.6 nM
COc1cc(-c2cc(C(=O)N3CC[C@H](C(=O)NCC45CC(C4)N(CC(C)(C)F)C5)CC34CC4)n[nH]2)c(F)cn1 [Example 440, (S)-4-(5-(5-fluoro-2-methoxypyridin-4-yl)-1H-pyrazole-3-carbonyl)-N-((2-(2-fluoro-2-methylpropyl)-2-azabicyclo[2.1.1]hexan-4-yl)methyl)-4-azaspiro[2.5]octane-7-carboxamide]	410 nM	927 nM
COc1cc(-c2cc(C(=O)N3[C@@H]4CC[C@H]3C[C@H](C(=O)NC3CCC(N)(C(F)(F)F)CC3)C4)n[nH]2)c(F)cn1 (stereo partly drawn) [Example 441, (1R,3s,5S)—N-(4-amino-4-(trifluoromethyl)cyclohexyl)-8-(5-(5-fluoro-2-methoxypyridin-4-yl)-1H-pyrazole-3-carbonyl)-8-azabicyclo[3.2.1]octane-3-carboxamide]	56.7 nM	350 nM
COc1cc(-c2cc(C(=O)N3CC[C@H](C(=O)NC45CC(C4)N(CC(C)(C)F)C5)CC34CC4)n[nH]2)c(F)cn1 [Example 442, (S)-4-(5-(5-fluoro-2-methoxypyridin-4-yl)-1H-pyrazole-3-carbonyl)-N-(2-(2-fluoro-2-methylpropyl)-2-azabicyclo[2.1.1]hexan-4-yl)-4-azaspiro[2.5]octane-7-carboxamide]	399 nM	583 nM
COc1cc(-c2cc(C(=O)N3CC[C@H](C(=O)NCC45COC(C(F)(F)F)(C4)C5)CC34CC4)n[nH]2)c(F)cn1 [Example 443, (S)-4-(5-(5-fluoro-2-methoxypyridin-4-yl)-1H-pyrazole-3-carbonyl)-N-((1-(trifluoromethyl)-2-oxabicyclo[2.1.1]hexan-4-yl)methyl)-4-azaspiro[2.5]octane-7-carboxamide]	21.4 nM	40.3 nM
COc1cc(-c2cc(C(=O)N3CCC(C(=O)N[C@H]4CC[C@@](O)(C(F)(F)F)CC4)CC34COC4)n[nH]2)c(F)cn1 (stereo partly shown) [Example 444, 5-(5-(5-fluoro-2-methoxypyridin-4-yl)-1H-pyrazole-3-carbonyl)-N-((1r,4r)-4-hydroxy-4-(trifluoromethyl)cyclohexyl)-2-oxa-5-azaspiro[3.5]nonane-8-carboxamide]	113 nM	> 10000 nM
COc1cc(-c2cc(C(=O)N3CC[C@H](C(=O)NCc4ncc(OC5COC5)cc4Cl)CC34CC4)n[nH]2)c(F)cn1 [Example 446, (S)—N-((3-chloro-5-(oxetan-3-yloxy)pyridin-2-yl)methyl)-4-(5-(5-fluoro-2-methoxypyridin-4-yl)-1H-pyrazole-3-carbonyl)-4-azaspiro[2.5]octane-7-carboxamide]	1.3 nM	27.4 nM
COc1cc(-c2cc(C(=O)N3CC[C@H](C(=O)NCc4ncc(N5CC(C)NC(C)C5)cn4)CC34CC4)n[nH]2)c(F)cn1 (stereo partly drawn) [Example 447, (7S)—N-((5-(3,5-dimethylpiperazin-1-yl)pyrimidin-2-yl)methyl)-4-(5-(5-fluoro-2-methoxypyridin-4-yl)-1H-pyrazole-3-carbonyl)-4-azaspiro[2.5]octane-7-carboxamide]	508 nM	3630 nM
COc1cc(-c2cc(C(=O)N3CC[C@H](C(=O)NC4(C#N)CC4)CC34CC4)n[nH]2)c(F)cn1 [Example 448, (S)—N-(1-cyanocyclopropyl)-4-(5-(5-fluoro-2-methoxypyridin-4-yl)-1H-pyrazole-3-carbonyl)-4-azaspiro[2.5]octane-7-carboxamide]	123 nM	1640 nM
COc1cnc(CNC(=O)[C@H]2CCN(C(=O)c3cc(-c4cc(OC)ncc4F)[nH]n3)C3(CC3)C2)nc1 [Example 455, (S)-4-(5-(5-fluoro-2-methoxypyridin-4-yl)-1H-pyrazole-3-carbonyl)-N-((5-methoxypyrimidin-2-yl)methyl)-4-azaspiro[2.5]octane-7-carboxamide]	67.9 nM	213 nM
COc1cc(-c2cc(C(=O)N3CC[C@H](C(=O)NCc4ncc(C(F)(F)F)cn4)CC34CC4)n[nH]2)c(F)cn1 [Example 457, (S)-4-(5-(5-fluoro-2-methoxypyridin-4-yl)-1H-pyrazole-3-carbonyl)-N-((5-(trifluoromethyl)pyrimidin-2-yl)methyl)-4-azaspiro[2.5]octane-7-carboxamide]	13.4 nM	414 nM
COc1cc(-c2cc(C(=O)N3CC[C@H](C(=O)NC4(c5ncc(Cl)cc5Cl)CC4)CC34CC4)n[nH]2)c(F)cn1 [Example 458, (S)—N-(1-(3,5-dichloropyridin-2-yl)cyclopropyl)-4-(5-(5-fluoro-2-methoxypyridin-4-yl)-1H-pyrazole-3-carbonyl)-4-azaspiro[2.5]octane-7-carboxamide]	3.8 nM	26.6 nM
COc1cc(-c2cc(C(=O)N3CC[C@H](C(=O)NCC4(O)COC4)CC34CC4)[nH]n2)c(F)cn1 [Example 463, (S)-4-(3-(5-fluoro-2-methoxypyridin-4-yl)-1H-pyrazole-5-carbonyl)-N-((3-hydroxyoxetan-3-yl)methyl)-4-azaspiro[2.5]octane-7-carboxamide]	180 nM	5200 nM
COc1cc(-c2cc(C(=O)N3CC[C@H](C(=O)NCc4nc(C)c(C)n4C)CC34CC4)n[nH]2)c(F)cn1 [Example 465, (S)-4-(5-(5-fluoro-2-methoxypyridin-4-yl)-1H-pyrazole-3-carbonyl)-N-((1,4,5-trimethyl-1H-imidazol-2-yl)methyl)-4-azaspiro[2.5]octane-7-carboxamide]	88.6 nM	842 nM
COc1cc(-c2cc(C(=O)N3CC[C@H](C(=O)NC4CCNC4)CC34CC4)n[nH]2)c(F)cn1 (stereo partly drawn) [Example 471, (7S)-4-(5-(5-fluoro-2-methoxypyridin-4-yl)-1H-pyrazole-3-carbonyl)-N-(pyrrolidin-3-yl)-4-azaspiro[2.5]octane-7-carboxamide]	62.6 nM	> 10000 nM
COc1cc(-c2cc(C(=O)N3CC[C@H](C(=O)NCc4nc(C)nn4C(C)C)CC34CC4)n[nH]2)c(F)cn1 [Example 473, (S)-4-(5-(5-fluoro-2-methoxypyridin-4-yl)-1H-pyrazole-3-carbonyl)-N-((1-isopropyl-3-methyl-1H-1,2,4-triazol-5-yl)methyl)-4-azaspiro[2.5]octane-7-carboxamide]	443 nM	3390 nM
